The subject of one assay is Heliothis virescens. The experiment in a line: Growth inhibition of tobacco budworm larvae assessed as percent of diet. It counts as functional.
Assay [1] concerns Stenotrophomonas maltophilia. The assay is described as follows: Antibacterial activity against Pseudomonas maltophilia at 100 ug by test disc paper method. As to conditions: read-out: IZ. The assay is classed as functional.
For another assay, the system named is Bacillus subtilis. The assay is described as follows: Antibacterial activity against Bacillus subtilis at 100 ug by test disc paper method. It counts as functional. The following applies: read-out: IZ.
The test system of assay [2] is Lysinibacillus sphaericus. The assay is described as follows: Antibacterial activity against Bacillus sphaericus by test disc paper method. The assay is classed as functional, organism-based.
A further assay concerns Bacillus thuringiensis. The experiment in a line: Antibacterial activity against Bacillus thuringiensis at 100 ug by test disc paper method. The assay is classed as functional. The following applies: read-out: IZ.
The subject of the next assay is Solanum lycopersicum. The assay is described as follows: Growth regulatory activity on tomato root. It counts as functional, organism-based.

Active and inactive are the calls of the source. The rule behind the calls is not given here.

Take `O=c1c(O)c(-c2ccc(O)c(O)c2)oc2cc(O)cc(O)c12` [QUERCETIN]: in the assay on Heliothis virescens, the ED50 came out at 0.05%. In addition, the zone of inhibition at 100 µg/disc in assay [1] turned out to be 10 mm.

For `O=C(O)c1cc(O)c(O)c(O)c1` [GALLIC ACID], the ED50 with Heliothis virescens stood at 18.5%. Also, the zone of inhibition at 100 µg/disc with Bacillus subtilis worked out at 10 mm. For the same compound, the result in assay [2] was Active.

In the case of `C[C@H]1O[C@@H](Oc2c(-c3cc(O)c(O)c(O)c3)oc3cc(O)cc(O)c3c2=O)[C@@H](O)[C@@H](O)[C@@H]1O` [MYRICITRIN], the ED50 in the assay with Heliothis virescens was found to be 0.11%.

In the case of `C[C@H]1O[C@@H](Oc2c(-c3cc(O)c(O)c(O)c3)oc3cc(O)cc(O)c3c2=O)[C@@H](OC(=O)c2cc(O)c(O)c(O)c2)[C@@H](O)[C@@H]1O`, the zone of inhibition at 100 µg/disc (with Bacillus thuringiensis; in assay [1]; in the assay with Bacillus subtilis) was 10 mm each time. Further, the ED50 with Heliothis virescens came to 0.09%. Moreover, the result in assay [2] was Active.

`C[C@H]1O[C@@H](Oc2c(-c3cc(O)c(O)c(O)c3)oc3cc(O)cc(O)c3c2=O)[C@@H](O)[C@@H](O)[C@@H]1OC(=O)c1cc(O)c(O)c(O)c1`: the ED50 in the assay with Heliothis virescens amounted to 0.04%. For the same compound, the result with Solanum lycopersicum was inactive.

Source of the values: ChEMBL document CHEMBL1151409, “Flavonoids of Desmanthus illinoensis” (1983).
